In series [1] the target is T1, COMT in HLC (Homo sapiens, UniProt P21964).
T1 construct: Pooled human liver cytosol (HLC) from seven male donors; tissue Research Institute for Liver Diseases (Shanghai, China) Lot; QROX; host or cells: pooled human liver cytosol, seven male donors
T1 sequence (P21964 1-221 isoform P21964-2): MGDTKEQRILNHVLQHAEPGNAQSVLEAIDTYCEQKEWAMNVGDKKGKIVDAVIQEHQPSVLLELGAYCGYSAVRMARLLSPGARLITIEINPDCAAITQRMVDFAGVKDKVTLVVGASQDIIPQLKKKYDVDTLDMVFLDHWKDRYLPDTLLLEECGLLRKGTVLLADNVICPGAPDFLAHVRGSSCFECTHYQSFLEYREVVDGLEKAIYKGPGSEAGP
Nature of the series: Methylation kinetics in pooled human liver cytosol (HLC). The series is classed as in vitro ADME. As to conditions: for Clint: intrinsic clearance (Vmax/Km); for COMT substrate in human liver cytosol: human liver cytosol with SAM. On the procedure:
(§1) Reaction mixtures were pre-incubated at 37°C for 5 min and initiated by the addition of SAM to a final concentration of 0.4 mM. The samples were incubated for a certain period of time and the reaction was terminated by the addition of 200 µl ice-cold acetonitrile and then centrifuged at 20 000g, 4°C, for 20 min. Control incubations were performed either without human liver cytosol, or without SAM or without substrate. The supernatants were subjected to ultra-fast liquid chromatography (UFLC) coupled with a diode array detector (DAD) and an electrospray ionization (ESI) mass spectrometer (MS) analyzer.
(§2) 7,8-DHCs and their methylated conjugates were analysed by a UFLC spectrometry system (Shimadzu, Kyoto, Japan), equipped with two LC-20AD pumps, a DGU-20A3 vacuum degasser, a SIL-20ACHT auto-sampler, a CTO-20AC column oven, an SPD-M 20A DAD, a CBM-20A communications bus module, a mass detector (2010EV) with an ESI interface and a computer equipped with UFLC-MS SOLUTION v. 3.41 software. A Shimadzu ODS (75.0 × 2.0 mm, 3 µm) analytical column was used to separate 7,8-DHCs and their methylated conjugates. Column temperature was kept at 40°C. […] The methylation samples were stable over 72 h at 4°C. 7,8-DHC methylation was quantified by the standard curves of the methylated conjugates at the detector wavelength of 325 nm, which were linear from 0.01 to 10 µM (the correlation coefficient was 0.999).
(§3) For estimating kinetic parameters, 7,8-DHCs (0.1–40 µM) were incubated with pooled HLC and S-COMT. 7,8-DHCs (0.1–40 µM) were incubated with HLC or S-COMT for 5 min, using a microsomal protein concentration of 0.5 mg ml^−1 or 0.002 mg ml^−1 for HLC and S-COMT, respectively. Kinetic constants for 7,8-DHCs methylation by HLC and S-COMT were obtained by fitting the Michaelis–Menten kinetics equation (3.1) to experimental data.
(§4) For the Michaelis–Menten kinetic model, 3.1 v=Vmax×[S]/Km+[S], where v is the rate of reaction, [S] is the substrate concentration, Vmax is the maximum velocity estimate and Km is the apparent affinity constant.
(§5) All incubations were performed in duplicate. Kinetic constants were obtained using GraphPad PRISM 6 (GraphPad Software, Inc. La Jolla, CA) software.

Series [2] has as its target T1, COMT in HLC. The series is described as above. As to conditions: identified by NMR. The series is classed as in vitro ADME.
The target in series [3] is T2, recombinant human soluble COMT (S-COMT) (Homo sapiens, UniProt P21964).
T2 construct: made in house
T2 sequence (P21964 1-221 isoform P21964-2): T1 sequence (P21964 1-221 isoform P21964-2)
Put plainly: Methylation kinetics with recombinant human soluble COMT. It counts as in vitro ADME. The conditions noted are these: for Clint: intrinsic clearance (Vmax/Km). The protocol:
as §1, §2, §3, §4, §5

The conditions of series [4]: after administration in rats; cited from earlier work.
In series [5] the test system is human hepatocytes. The conditions noted are these: cited from earlier work.

This is an account of results in paper PMC5792912 (Royal Society Open Science, 2018).

`Cc1cc(=O)oc2c(O)c(O)ccc12` [4-MDPN, 4-methyl daphnetin]: the Clint in series [1] (HLC) came out at 0.70 µL/min/mg; in series [3], 154.8 µL/min/mg. In addition, the “COMT substrate in human liver cytosol” value in series [1] was “COMT substrates”. In addition, the methylated metabolite identified in series [2] was 8-O-methylated 7,8-DHC.
For orientation: Vmax means the top rate of the reaction or transport when substrate is in excess. Broadly, the half-life is how long it takes for the measured level to halve. Turning to `O=c1ccc2ccc(O)c(O)c2o1` [daphnetin, 7,8-dihydroxycoumarin], the maximal velocity (Vmax) in series [1] (HLC, best-fit value ± s.e.) came to 0.11 ± 0.0034 nmol/min/mg; in series [3] (best-fit value ± s.e.) it was 81.4 ± 2.4 nmol/min/mg. For the same compound, the values for the Clint in series [1] (HLC) and in series [3] were 0.52 µL/min/mg and 169.5 µL/min/mg, respectively. Moreover, in series [1], the “COMT substrate in human liver cytosol” value is recorded as “COMT substrates”. Also, in series [2], the methylated metabolite identified was 8-O-methylated 7,8-DHC. Further, in series [4], the half-life is listed as 15 min. Moreover, the methyl-derived metabolites in series [5] was 37.3%.
Consider `O=C(O)Cc1cc(=O)oc2c(O)c(O)ccc12` [4-ADPN, 4-acetic acid daphnetin], for which the Clint in series [1] (HLC) is 0.017 µL/min/mg; in series [3], 31.1 µL/min/mg. The “COMT substrate in human liver cytosol” value in series [1] is “COMT substrates”. For the same compound, the methylated metabolite identified in series [2] was 8-O-methylated 7,8-DHC.
On the same counts, the results for `O=c1cc(-c2ccccc2)c2ccc(O)c(O)c2o1` [4-PDPN, 4-phenyl daphnetin] are 1.91 µL/min/mg, 424.0 µL/min/mg, “COMT substrates” and 8-O-methylated 7,8-DHC.
